{"source": "patent US10526345B2", "about": "“Compounds as GPR119 agonists” (Mankind Pharma Ltd., priority 2016, dated 2020)", "key": {"hGPR119": {"molecular_target": "T1, hGPR119 (Homo sapiens, UniProt Q8TDV5)", "T1 construct": "expressed in transfected cells; host or cells: CHO", "T1 sequence (Q8TDV5 1-335)": "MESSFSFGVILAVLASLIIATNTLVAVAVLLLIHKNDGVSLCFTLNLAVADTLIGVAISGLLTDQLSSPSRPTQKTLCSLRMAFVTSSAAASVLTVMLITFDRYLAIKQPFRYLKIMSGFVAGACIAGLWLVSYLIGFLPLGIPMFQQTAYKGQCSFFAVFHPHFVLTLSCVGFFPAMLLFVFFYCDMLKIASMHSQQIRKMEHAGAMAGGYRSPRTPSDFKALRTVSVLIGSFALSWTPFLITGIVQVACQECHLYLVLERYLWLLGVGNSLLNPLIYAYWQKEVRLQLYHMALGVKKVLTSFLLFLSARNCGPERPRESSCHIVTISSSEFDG", "experiment": "In vitro cyclic AMP assay (Cisbio dynamic 2 HTRF kit) in CHO-hGPR119 cells", "format": "cell-based", "details": "cAMP; for activation at 1 µM: 1 h, compound at 1 μM, 60 min, read-out: Induction (% induction at 1 μM)"}, "Male C57BL/6 mice": {"system": "Male C57BL/6 mice", "experiment": "Oral glucose tolerance test in C57BL/6 mice", "format": "in vivo", "details": "3 mpk and 10 mpk, glucose 2 g/kg", "experimental": "Male C57BL/6 mice (8-10 weeks) were grouped based on basal glucose levels and animals were fasted for 16 hours. Glucose level of each animal was estimated in blood collected from tail vein before animals were dosed orally with 0.5% Tween 80 and 0.5% NaCMC (vehicle control) and compounds at 3 and 10 mpk (n=5). After 30 minutes of compound dosing, blood glucose was again estimated and 2 g/kg/10 ml (20%) of Glucose solution was administered orally to all the animals. Blood glucose was estimated at 15, 30, 60, 90 and 120 minutes time points after glucose administration. Accu-Check active blood glucose meter was utilised for estimation of blood from tail vein.\nGlucose reduction observed in animals treated with compounds of present invention is represented in terms of % AUC reduction. A greater glucose reduction in oral glucose tolerance test indicates the compound's efficacy in this rodent species."}}}
{"smiles": "CCc1cnc(N2CCC([C@H](C)Oc3nc4ccc(-c5ccnc(F)c5)nc4s3)CC2)nc1", "note": "[Compound 1104, (S)-2-(1-(1-(5-ethylpyrimidin-2-yl)piperidin-4-yl)ethoxy)-5-(2-fluoropyridin-4-yl)thiazolo[5,4-b]pyridine]", "values": [{"measurement": "activation at 1 µM", "setting": "hGPR119", "value": 84, "unit": "%"}, {"measurement": "EC50", "setting": "hGPR119", "value": "25 to 50", "unit": "nM"}, {"measurement": "glucose reduction (% AUC reduction) in oral glucose tolerance test", "setting": "Male C57BL/6 mice", "value": "significant dose dependent glucose reduction"}]}
{"smiles": "CC(Oc1nc2ccc(-c3ccc(S(C)(=O)=O)cc3)nc2s1)C1CCN(c2ncc(Cl)cn2)CC1", "note": "(stereo not drawn) [Compound 1120, 2-(1-(1-(5-chloropyrimidin-2-yl)piperidin-4-yl)ethoxy)-5-(4-(methylsulfonyl)phenyl)thiazolo[5,4-b]pyridine]", "values": [{"measurement": "activation at 1 µM", "setting": "hGPR119", "value": 40, "unit": "%"}, {"measurement": "glucose reduction (% AUC reduction) in oral glucose tolerance test", "setting": "Male C57BL/6 mice", "value": "significant dose dependent glucose reduction"}]}
{"smiles": "CC(C)c1noc(N2CCC([C@@H](C)Oc3nc4ccc(-c5ccc(S(C)(=O)=O)nc5)nc4s3)C2)n1", "note": "(stereo partly drawn) [Compound 1140, 2-((R)-1-(1-(3-isopropyl-1,2,4-oxadiazol-5-yl)pyrrolidin-3-yl)ethoxy)-5-(6-(methylsulfonyl)pyridin-3-yl)thiazolo[5,4-b]pyridine]", "values": [{"measurement": "activation at 1 µM", "setting": "hGPR119", "value": 4, "unit": "%"}]}
{"smiles": "CC(C)c1noc(N2CCC([C@H](C)Oc3nc4ccc(-c5ccc(S(C)(=O)=O)nc5)nc4s3)C2)n1", "note": "(stereo partly drawn) [Compound 1141, 2-((S)-1-(-(3-isopropyl-1,2,4-oxadiazol-5-yl)pyrrolidin-3-yl)ethoxy)-5-(6-(methylsulfonyl)pyridin-3-yl)thiazolo[5,4-b]pyridine]", "values": [{"measurement": "activation at 1 µM", "setting": "hGPR119", "value": 3, "unit": "%"}]}
{"smiles": "CC(C)c1noc(N2CCC(C(C)Oc3nc4ccc(-c5ccc(Cl)nc5)nc4s3)CC2)n1", "note": "(stereo not drawn) [Compound 1142, 2-(1-(1-(3-isopropyl-1,2,4-oxadiazol-5-yl)piperidin-4-yl)ethoxy)-5-(6-chloropyridin-3-yl)thiazolo[5,4-b]pyridine]", "values": [{"measurement": "activation at 1 µM", "setting": "hGPR119", "value": 72, "unit": "%"}]}
{"smiles": "CC(C)c1noc(N2CCC(C(C)Oc3nc4ccc(-c5ccc(N6CCNC6=O)nc5)nc4s3)CC2)n1", "note": "(stereo not drawn) [Compound 1144, 1-(5-(2-(1-(1-(3-isopropyl-1,2,4-oxadiazol-5-yl)piperidin-4-yl)ethoxy)thiazolo[5,4-b]pyridin-5-yl)pyridin-2-yl)imidazolidin-2-one]", "values": [{"measurement": "activation at 1 µM", "setting": "hGPR119", "value": 69, "unit": "%"}]}
{"smiles": "CC(C)c1noc(N2CCC(C(C)Oc3nc4ccc(-c5ccc(N6CCCC6=O)nc5)nc4s3)CC2)n1", "note": "(stereo not drawn) [Compound 1146, 1-(5-(2-(1-(1-(3-isopropyl-1,2,4-oxadiazol-5-yl)piperidin-4-yl)ethoxy)thiazolo[5,4-b]pyridin-5-yl)pyridin-2-yl)pyrrolidin-2-one]", "values": [{"measurement": "activation at 1 µM", "setting": "hGPR119", "value": 61, "unit": "%"}]}
{"smiles": "CC(Oc1nc2ccc(-c3ccc(S(C)(=O)=O)cc3)nc2s1)C1CCN(c2cnc(Cl)cn2)CC1", "note": "(stereo not drawn) [Compound 1148, 2-(1-(1-(5-chloropyrazin-2-yl)piperidin-4-yl)ethoxy)-5-(4-(methylsulfonyl)phenyl)thiazolo[5,4-b]pyridine]", "values": [{"measurement": "activation at 1 µM", "setting": "hGPR119", "value": 70, "unit": "%"}]}
{"smiles": "CCc1cnc(N2CCC(C(C)Oc3nc4ccc(-c5ccncc5)nc4s3)CC2)nc1", "note": "(stereo not drawn) [Compound 1149, 2-(1-(1-(5-ethylpyrimidin-2-yl)piperidin-4-yl)ethoxy)-5-(pyridin-4-yl)thiazolo[5,4-b]pyridine]", "values": [{"measurement": "activation at 1 µM", "setting": "hGPR119", "value": 64, "unit": "%"}]}
{"smiles": "CCCc1cnc(N2CCC(C(C)Oc3nc4ccc(-c5ccncc5)nc4s3)CC2)nc1", "note": "(stereo not drawn) [Compound 1150, 2-(1-(1-(5-propylpyrimidin-2-yl)piperidin-4-yl)ethoxy)-5-(pyridin-4-yl)thiazolo[5,4-b]pyridine]", "values": [{"measurement": "activation at 1 µM", "setting": "hGPR119", "value": 67, "unit": "%"}]}
{"smiles": "CC(Oc1nc2ccc(-c3ccc(S(C)(=O)=O)nc3)nc2s1)C1CCN(c2cnc(Cl)cn2)CC1", "note": "(stereo not drawn) [Compound 1151, 2-(1-(1-(5-chloropyrazin-2-yl)piperidin-4-yl)ethoxy)-5-(6-(methylsulfonyl)pyridin-3-yl)thiazolo[5,4-b]pyridine]", "values": [{"measurement": "activation at 1 µM", "setting": "hGPR119", "value": 66, "unit": "%"}]}
{"smiles": "CC(C)c1noc(N2CCC([C@H](C)Oc3nc4ccc(-c5ccc(C(F)(F)F)nc5)nc4s3)CC2)n1", "note": "[Compound 1152, 2-(1-(1-(3-isopropyl-1,2,4-oxadiazol-5-yl)piperidin-4-yl)ethoxy)-5-(6-(trifluoromethyl)pyridin-3-yl)thiazolo[5,4-b]pyridine]", "values": [{"measurement": "activation at 1 µM", "setting": "hGPR119", "value": 77, "unit": "%"}, {"measurement": "EC50", "setting": "hGPR119", "value": "50 to 100", "unit": "nM"}]}
{"smiles": "CCCc1cnc(N2CCC([C@H](C)Oc3nc4ccc(-c5ccncc5)nc4s3)CC2)nc1", "note": "[Compound 1153, 2-((S)-1-(1-(5-propylpyrimidin-2-yl)piperidin-4-yl)ethoxy)-5-(pyridin-4-yl)thiazolo[5,4-b]pyridine]", "values": [{"measurement": "activation at 1 µM", "setting": "hGPR119", "value": 85, "unit": "%"}, {"measurement": "EC50", "setting": "hGPR119", "value": "100 to 500", "unit": "nM"}]}
{"smiles": "CCc1cnc(N2CCC([C@H](C)Oc3nc4ccc(-c5ccc(C(F)(F)F)nc5)nc4s3)CC2)nc1", "note": "[Compound 1154, (S)-2-(1-(1-(5-ethylpyrimidin-2-yl)piperidin-4-yl)ethoxy)-5-(6-(trifluoromethyl)pyridin-3-yl)thiazolo[5,4-b]pyridine]", "values": [{"measurement": "activation at 1 µM", "setting": "hGPR119", "value": 65, "unit": "%"}, {"measurement": "EC50", "setting": "hGPR119", "value": "25 to 50", "unit": "nM"}]}
{"smiles": "CCc1noc(N2CCC(C(C)Oc3nc4ccc(-c5ccc(S(C)(=O)=O)nc5)nc4s3)CC2)n1", "note": "(stereo not drawn) [Compound 1156, 2-(1-(1-(3-ethyl-1,2,4-oxadiazol-5-yl)piperidin-4-yl)ethoxy)-5-(6-(methylsulfonyl)pyridin-3-yl)thiazolo[5,4-b]pyridine]", "values": [{"measurement": "activation at 1 µM", "setting": "hGPR119", "value": 54, "unit": "%"}]}
{"smiles": "Cc1cnc(N2CCC(C(C)Oc3nc4ccc(-c5ccc(S(C)(=O)=O)nc5)nc4s3)CC2)nc1", "note": "(stereo not drawn) [Compound 1157, 2-(1-(1-(5-methylpyrimidin-2-yl)piperidin-4-yl)ethoxy)-5-(6-(methylsulfonyl)pyridin-3-yl)thiazolo[5,4-b]pyridine]", "values": [{"measurement": "activation at 1 µM", "setting": "hGPR119", "value": 81, "unit": "%"}]}
{"smiles": "CC(C)c1noc(N2CCC(C(C)Oc3nc4ccc(-c5cnc(S(C)(=O)=O)cn5)nc4s3)CC2)n1", "note": "(stereo not drawn) [Compound 1158, 2-(1-(1-(3-isopropyl-1,2,4-oxadiazol-5-yl)piperidin-4-yl)ethoxy)-5-(5-(methylsulfonyl)pyrazin-2-yl)thiazolo[5,4-b]pyridine]", "values": [{"measurement": "activation at 1 µM", "setting": "hGPR119", "value": 80, "unit": "%"}]}
{"smiles": "CC(Oc1nc2ccc(-c3ccc(S(C)(=O)=O)nc3)nc2s1)C1CCN(c2ncc(C(F)(F)F)cn2)CC1", "note": "(stereo not drawn) [Compound 1159, 2-(1-(1-(5-(trifluoromethyl)pyrimidin-2-yl)piperidin-4-yl)ethoxy)-5-(6-(methylsulfonyl)pyridin-3-yl)thiazolo[5,4-b]pyridine]", "values": [{"measurement": "activation at 1 µM", "setting": "hGPR119", "value": 70, "unit": "%"}]}
{"smiles": "CCc1noc(N2CCC([C@H](C)Oc3nc4ccc(-c5ccc(S(C)(=O)=O)nc5)nc4s3)CC2)n1", "note": "[Compound 1160, 2-((S)-1-(1-(3-ethyl-1,2,4-oxadiazol-5-yl)piperidin-4-yl)ethoxy)-5-(6-(methylsulfonyl)pyridin-3-yl)thiazolo[5,4-b]pyridine]", "values": [{"measurement": "activation at 1 µM", "setting": "hGPR119", "value": 76, "unit": "%"}, {"measurement": "EC50", "setting": "hGPR119", "value": "25 to 50", "unit": "nM"}]}
{"smiles": "CC(C)c1noc(N2CCC(C(C)Oc3nc4ccc(-c5ccc(S(C)(=O)=O)cn5)nc4s3)CC2)n1", "note": "(stereo not drawn) [Compound 1161, 2-(1-(1-(3-isopropyl-1,2,4-oxadiazol-5-yl)piperidin-4-yl)ethoxy)-5-(5-(methylsulfonyl)pyridin-2-yl)thiazolo[5,4-b]pyridine]", "values": [{"measurement": "activation at 1 µM", "setting": "hGPR119", "value": 69, "unit": "%"}]}
{"smiles": "CC(C)c1noc(N2CCC(C(C)Oc3nc4cnc(-c5ccc(S(C)(=O)=O)nc5)nc4s3)CC2)n1", "note": "(stereo not drawn) [Compound 1162, 2-(1-(1-(3-isopropyl-1,2,4-oxadiazol-5-yl)piperidin-4-yl)ethoxy)-5-(6-(methylsulfonyl)pyridin-3-yl)thiazolo[5,4-d]pyrimidine]", "values": [{"measurement": "activation at 1 µM", "setting": "hGPR119", "value": 62, "unit": "%"}]}
{"smiles": "COCc1cnc(N2CCC(C(C)Oc3nc4ccc(-c5ccc(S(C)(=O)=O)nc5)nc4s3)CC2)nc1", "note": "(stereo not drawn) [Compound 1163, 2-(1-(1-(5-(methoxymethyl)pyrimidin-2-yl)piperidin-4-yl)ethoxy)-5-(6-(methylsulfonyl)pyridin-3-yl)thiazolo[5,4-b]pyridine]", "values": [{"measurement": "activation at 1 µM", "setting": "hGPR119", "value": 63, "unit": "%"}]}
{"smiles": "COCc1cnc(N2CCC([C@@H](C)Oc3nc4ccc(-c5ccc(S(C)(=O)=O)nc5)nc4s3)CC2)nc1", "note": "[Compound 1165, 2-((R)-1-(1-(5-(methoxymethyl)pyrimidin-2-yl)piperidin-4-yl)ethoxy)-5-(6-(methylsulfonyl)pyridin-3-yl)thiazolo[5,4-b]pyridine]", "values": [{"measurement": "activation at 1 µM", "setting": "hGPR119", "value": 70, "unit": "%"}]}
{"smiles": "C[C@H](Oc1nc2ccc(-c3ccc(S(C)(=O)=O)nc3)nc2s1)C1CCN(c2ncc(C(F)(F)F)cn2)CC1", "note": "[Compound 1166, 2-((S)-1-(1-(5-(trifluoromethyl)pyrimidin-2-yl)piperidin-4-yl)ethoxy)-5-(6-(methylsulfonyl)pyridin-3-yl)thiazolo[5,4-b]pyridine]", "values": [{"measurement": "activation at 1 µM", "setting": "hGPR119", "value": 70, "unit": "%"}]}
{"smiles": "CC(C)c1noc(N2CCC([C@H](C)Oc3nc4ccc(-c5ccc(S(C)(=O)=O)nc5F)nc4s3)CC2)n1", "note": "[Compound 1167, 2-((S)-1-(1-(3-isopropyl-1,2,4-oxadiazol-5-yl)piperidin-4-yl)ethoxy)-5-(2-fluoro-6-(methylsulfonyl)pyridin-3-yl)thiazolo[5,4-b]pyridine]", "values": [{"measurement": "activation at 1 µM", "setting": "hGPR119", "value": 20, "unit": "%"}]}
{"smiles": "Cc1cc(S(C)(=O)=O)ccc1-c1ccc2nc(O[C@H](C)C3CCN(c4nc(C(C)C)no4)CC3)sc2n1", "note": "[Compound 1169, 2-((R)-1-(1-(3-isopropyl-1,2,4-oxadiazol-5-yl)piperidin-4-yl)ethoxy)-5-(2-methyl-4-(methylsulfonyl)phenyl)thiazolo[5,4-b]pyridine]", "values": [{"measurement": "activation at 1 µM", "setting": "hGPR119", "value": 43, "unit": "%"}]}
